{"source": "patent US20040077655A1", "about": "“Piperazine derivatives for treatment of bacterial infections” (priority 2000, published 2004)", "test": "MIC of test compounds against various organisms", "type": "cell-based, S. aureus, S. pneumoniae, H. influenzae, E. faecalis", "description": "The MIC (μg/ml) of test compounds against various organisms was determined: S. aureus Oxford, S. aureus WCUH29, S. pneumoniae 1629, S. pneumoniae N1387, S. pneumoniae ERY 2, H. influenzae Q1, E. faecalis 7.", "data": [{"smiles": "COc1ccc2nccc(NC(=O)N3CCN(CC(=O)c4cnc5ccccc5n4)CC3)c2n1", "note": "[Example 10, 4-(2-Oxo-2-quinoxalin-2-yl-ethyl)-piperazine-1-carboxylic acid (6-methoxy-[1,5]naphthyridin-4-yl)-amide.]", "values": [{"measurement": "MIC", "result": "≤ 2", "unit": "µg/mL"}]}, {"smiles": "COc1ccc2nccc(NC(=O)N3CCN(CC(=O)c4ccc5c(c4)NC(=O)CO5)CC3)c2n1", "note": "[Example 12, 4-[2-Oxo-2-(3-oxo-3,4-dihydro-2H-benzo[1,4]oxazin-6-yl)-ethyl]piperazine-1-carboxylic acid (6-methoxy-[1,5]naphthyridin-4-yl)-amide.]", "values": [{"measurement": "MIC", "result": "≤ 0.25", "unit": "µg/mL"}]}]}
